This note sets out measurements from publication PMC3967766 (Journal of medicinal chemistry, 2013).

“Also recorded” adds a separate entry of the source. Read-outs that look alike come from different tables or passages of the source.

In series [1] the target is T1, CB2 receptor (Homo sapiens, UniProt P34972). The series is described as follows: cell-based LANCE cAMP assay in CHO cells stably expressing CB2. In general terms: Time-resolved FRET reads energy transfer from a long-lived donor to a nearby acceptor.
T1 sequence (P34972 whole entry): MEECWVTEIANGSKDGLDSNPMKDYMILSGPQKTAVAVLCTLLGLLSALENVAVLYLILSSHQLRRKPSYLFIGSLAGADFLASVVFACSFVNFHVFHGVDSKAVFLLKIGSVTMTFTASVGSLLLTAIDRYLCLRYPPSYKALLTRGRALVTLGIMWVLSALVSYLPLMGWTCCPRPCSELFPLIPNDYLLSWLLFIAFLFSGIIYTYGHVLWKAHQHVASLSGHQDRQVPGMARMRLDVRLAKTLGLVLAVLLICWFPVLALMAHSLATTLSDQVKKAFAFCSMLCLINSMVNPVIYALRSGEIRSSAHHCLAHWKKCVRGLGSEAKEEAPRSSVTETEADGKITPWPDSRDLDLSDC
Series [2] deals with RAW 264.7 cells. The series is described as follows: MTT cytotoxicity assay on osteoclast precursors. The class given is cell-based, mouse. The settings on record: for cell viability versus vehicle control: 1.25 and 2.5 µM; for cell viability: 5 and 10 µM. On the technique in general: Tetrazolium assays rely on reduction of a dye to a coloured formazan, in cell work by metabolically active cells.

Series [3] has as its system RAW 264.7 cells. The series is described as follows: RANKL-induced osteoclast formation assay. To be noted: 5 days; for inhibition rate of osteoclast formation: RANKL 15 ng/mL; for inhibitory activity on RANKL-induced osteoclast formation: RAW 264.7, RANKL 15 ng/mL.
Series [4] has as its target T1, CB2 receptor. The series is described as follows: [3H]CP-55,940 radioligand competition binding assay, CB2. On the technique in general: Loss of bound radioactivity is the signal in a displacement assay; it reports binding, not function.
For another series, the target named is CB1 receptor (Homo sapiens, UniProt P21554). The series is described as follows: [3H]CP-55,940 radioligand competition binding assay, CB1. To be noted: read-out: Ki (CB1); [3H]CP-55,940 competition, CB1 membrane protein.
Sequence of CB1 receptor (P21554 whole entry): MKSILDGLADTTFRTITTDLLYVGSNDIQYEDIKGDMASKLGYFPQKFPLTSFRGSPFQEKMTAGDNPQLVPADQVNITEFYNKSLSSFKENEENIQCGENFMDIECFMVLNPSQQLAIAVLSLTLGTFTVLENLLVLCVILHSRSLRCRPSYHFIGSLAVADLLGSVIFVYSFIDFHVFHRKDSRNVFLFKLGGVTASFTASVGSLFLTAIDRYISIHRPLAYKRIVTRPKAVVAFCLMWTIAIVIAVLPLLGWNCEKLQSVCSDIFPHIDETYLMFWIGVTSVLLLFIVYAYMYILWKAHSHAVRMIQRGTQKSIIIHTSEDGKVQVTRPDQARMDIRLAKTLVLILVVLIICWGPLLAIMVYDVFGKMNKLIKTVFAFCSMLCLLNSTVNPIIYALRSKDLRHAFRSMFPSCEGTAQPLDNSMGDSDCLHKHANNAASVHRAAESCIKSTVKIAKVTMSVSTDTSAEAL

In the case of `CCN(CC)c1ccc(CN(c2ccc(C)cc2)S(=O)(=O)c2ccccc2)cc1` [Compound 54, N-(4-(Diethylamino)benzyl)-N-(p-tolyl)benzenesulfonamide], the CB2 functional activity result on CB2 receptor [1] (LANCE cAMP assay) is “inverse agonists”.

As to `CCN(CC)c1ccc(CN(c2ccc(C)cc2)S(=O)(=O)c2ccc(OC)cc2)cc1` [Compound 57, N-(4-(Diethylamino)benzyl)-4-methoxy-N-(p-tolyl)benzenesulfonamide], the “effect on cell viability” value in the series with RAW 264.7 cells [2] (5 µM, 3 days, MTT) is on record as “only slight effect on cell viability”. Also, in the series on RAW 264.7 cells [2] (3 days, MTT), the “cell viability versus vehicle control” value is given as “not significantly affected” and the cell viability entry was “only some effects on cell viability”. For the same compound, the “cytotoxic effects on RAW 264.7” value in the series with RAW 264.7 cells [2] (cell viability test, overall) is reported as “very low cytotoxic effects”. On CB2 receptor [1] (LANCE cAMP assay), the CB2 functional activity result is recorded as “inverse agonists”. For the same compound, the “inhibition rate of osteoclast formation” value in the series on RAW 264.7 cells [3] (0.1 µM) is on record as “strongest inhibition activity”. In addition, the “inhibition rate of osteoclast formation” value in the series on RAW 264.7 cells [3] (1 µM) is listed as “good inhibition activity”. In the series with RAW 264.7 cells [3], the “inhibitory activity on RANKL-induced osteoclast formation” value (“inhibitory activity” for short) is given as “potent inhibitory activity; also recorded: inhibit RANKL-induced osteoclastogenesis in a dose-dependent manner”.

On to `CCCCCCC(C)(C)c1ccc([C@@H]2C[C@H](O)CC[C@H]2CCCO)c(O)c1` [CP55940, reference compound], for which the CB2 functional activity result at CB2 receptor [1] is “agonists”.

`Cc1ccc(Cn2nc(C(=O)NC3C4(C)CCC(C4)C3(C)C)cc2-c2ccc(Cl)c(C)c2)cc1` (stereo not drawn) [Compound 5, SR144528, reference compound]: on CB2 receptor [1], the CB2 functional activity result was “inverse agonists”.

On to `CCN(CC)c1ccc(CN([C@]23C[C@H]4C[C@H](C[C@H](C4)C2)C3)S(=O)(=O)c2ccc(F)cc2)cc1` [Compound 21, N-((3s,5s,7s)-Adamantan-1-yl)-N-(4-(diethylamino)benzyl)-4-fluorobenzenesulfonamide], for which the CB2 functional activity result on CB2 receptor [1] (LANCE cAMP assay) was “inverse agonists”.

As a reminder, the Ki is the dissociation constant of the complex between target and ligand, obtained from inhibition or displacement. Compound `CCN(CC)c1ccc(CN([C@]23C[C@H]4C[C@H](C[C@H](C4)C2)C3)S(=O)(=O)c2cccc(C)c2)cc1` [Compound 25, N-((3s,5s,7s)-Adamantan-1-yl)-N-(4-(diethylamino)benzyl)-3-methylbenzenesulfonamide] registered a Ki on CB2 receptor [4] of 25 nM. For the same compound, the “inhibitory activity” value in the series with RAW 264.7 cells [3] is on record as “inhibit RANKL-induced osteoclastogenesis in a dose-dependent manner; also recorded: potent inhibitory activity”.

For `CCCCCCC(C)(C)c1cc(OC)c([C@H]2C=C(CO)[C@H]3C[C@@H]2C3(C)C)c(OC)c1` (stereo in doubt) [HU308, reference compound], at CB2 receptor [1] (LANCE cAMP assay), the CB2 functional activity result is listed as “agonists”.

For `CCN(CC)c1ccc(CN(C(=O)Cc2ccc(Cl)cc2)c2ccc(Cl)cc2)cc1` [Compound 52, N,2-bis(4-Chlorophenyl)-N-(4-(diethylamino)benzyl)acetamide], the Ki on CB1 receptor is > 20000 nM.

For the compound `CCN(CC)c1ccc(CN(c2ccc(Cl)cc2)S(=O)(=O)c2ccc(OC)cc2)cc1` [Compound 48, N-(4-Chlorophenyl)-N-(4-(diethylamino)benzyl)-4-methoxybenzenesulfonamide], in the series on RAW 264.7 cells [2] (3 days, MTT), the “cell viability versus vehicle control” value was “not significantly affected” and the cell viability entry was “only some effects on cell viability”. Besides, the CB2 functional activity result on CB2 receptor [1] (LANCE cAMP assay) is on record as “inverse agonists”. For the same compound, the “inhibition rate of osteoclast formation” value in the series on RAW 264.7 cells [3] (1 µM) is on record as “good inhibition activity”. The “inhibitory activity” value with RAW 264.7 cells [3] is “inhibit RANKL-induced osteoclastogenesis in a dose-dependent manner; also recorded: potent inhibitory activity”.
